# Experimental data taken from EP4793274A1, “SALT AND CRYSTAL FORM OF KIF18A INHIBITOR COMPOUND, PREPARATION METHOD THEREFOR AND USE THEREOF” (Hubei Bio-Pharmaceutical Industrial Technological Institute …, priority 2023, dated 2025).
# Structures can show the parent of a compound that is named as a salt. Where two headings read alike, the source gives them in different places.
# Tests used:
# [1] = Dynamic solubility at 37 °C in H2O, SGF, FaSSIF and FeSSIF (HPLC concentration, pH of filtrate, XRPD of residual solid); assay type: physicochemical; details: for solubility at 1 h / solubility at 2 h / solubility at 4 h / solubility at 24 h / S: solubility: feeding concentration 10 mg/mL; for solubility at 1 h / solubility at 2 h / solubility at 4 h / solubility at 24 h: read-out: S: solubility; for FC: crystal form change: XRPD of residual solid; for pH: pH of filtrate
# Method: 0.82 mL of glacial acetic acid and 1.18 g of NaCl were added to a 100 mL volumetric flask and completely dissolved by addition of purified water.
# The solubility of each sample in H2O, SGF, FaSSIF, and FeSSIF was determined at different time points (1 h, 2 h, 4 h, and 24 h). […] 137-156. […] Table C-2. Summary of dynamic solubility test results at 37 °C
# [2] = Solubility at room temperature in water, SGF and FaSSIF (HPLC concentration, pH of filtrate, XRPD of residual solid); details: for pH: pH of filtrate, listed as Crystal form B of sulfate
# [3] = physchem
# [4] = Hygroscopicity by dynamic vapor sorption (DVS); assay type: physicochemical; details: for vapor sorption values: 25 °C/80% RH
# Method: Dynamic vapor sorption (DVS) curves were acquired on a DVS IntrInsic from Surface Measurement Systems (SMS). The relative humidity at 25 °C was corrected with the deliquescence points of LiCl, Mg(NO3)2, and KCl. Table A-5. DVS test parameters
# The percentage changes in mass of the samples when the humidity changed (0% RH to 95% RH) at a constant temperature of 25 °C were collected. 157-166.
# [5] = Solid state stability (XRPD and HPLC purity); assay type: physicochemical
# From the text: 167-171. […] Table C-3. Summary of solid state stability evaluation
# [6] = FaSSIF, 1 h, listed as Crystal form B of sulfate
# [7] = FaSSIF, 2 h, listed as Crystal form B of sulfate
# [8] = FaSSIF, 4 h, listed as Crystal form B of sulfate
# [9] = FaSSIF, 24 h, listed as Crystal form B of sulfate
# [10] = FeSSIF, 1 h, listed as Crystal form B of sulfate
# [11] = FeSSIF, 2 h, listed as Crystal form B of sulfate
# [12] = FeSSIF, 4 h, listed as Crystal form B of sulfate
# [13] = FeSSIF, 24 h, listed as Crystal form B of sulfate
# [14] = H2O, 1 h, listed as Crystal form B of sulfate
# [15] = H2O, 24 h, listed as Crystal form B of sulfate
# [16] = 80 °C/sealed, 1 day, listed as Crystal form B of sulfate
smiles,measurement,setting,value
Cc1cc(-c2cnn(-c3ccc(NS(=O)(=O)CCO)cc3N3CCC4(CC3)CC4)c2)nc(N2CCC(F)(F)CC2)n1 [crystal form B of the sulfate],solubility at 1 h,"[1]; FaSSIF, 1 h",53.9 µg/mL
same,solubility at 2 h,"[1]; FaSSIF, 2 h",36.4 µg/mL
same,solubility at 4 h,"[1]; FaSSIF, 4 h",28.1 µg/mL
same,solubility at 24 h,"[1]; FaSSIF, 24 h",13.6 µg/mL
same,solubility at 1 h,"[1]; FeSSIF, 1 h",194 µg/mL
same,solubility at 2 h,"[1]; FeSSIF, 2 h",186 µg/mL
same,solubility at 4 h,"[1]; FeSSIF, 4 h",166 µg/mL
same,solubility at 24 h,"[1]; FeSSIF, 24 h",79 µg/mL
same,solubility at 1 h,"[1]; SGF, 1 h",147 µg/mL
same,solubility at 2 h,"[1]; SGF, 2 h",82.4 µg/mL
same,solubility at 4 h,"[1]; SGF, 4 h",18.1 µg/mL
same,solubility at 24 h,"[1]; SGF, 24 h",18.5 µg/mL
same,FC: crystal form change,[1]; [6],Yes
same,FC: crystal form change,[1]; [7],Yes
same,FC: crystal form change,[1]; [8],Yes
same,FC: crystal form change,[1]; [9],Yes
same,FC: crystal form change,[1]; [10],Yes
same,FC: crystal form change,[1]; [11],Yes
same,FC: crystal form change,[1]; [12],Yes
same,FC: crystal form change,[1]; [13],Yes
same,FC: crystal form change,[1]; [14],Yes
same,FC: crystal form change,"[1]; H2O, 2 h, listed as Crystal form B of sulfate",Yes
same,FC: crystal form change,"[1]; H2O, 4 h, listed as Crystal form B of sulfate",Yes
same,FC: crystal form change,[1]; [15],Yes
same,FC: crystal form change,"[1]; SGF, 1 h, listed as Crystal form B of sulfate",Yes
same,FC: crystal form change,"[1]; SGF, 2 h, listed as Crystal form B of sulfate",Yes
same,FC: crystal form change,"[1]; SGF, 4 h, listed as Crystal form B of sulfate",Yes
same,FC: crystal form change,"[1]; SGF, 24 h, listed as Crystal form B of sulfate",Yes
same,pH,[1]; [6],2.06
same,pH,[1]; [7],2.13
same,pH,[1]; [8],2.07
same,pH,[1]; [9],2.08
same,pH,[1]; [10],4.50
same,pH,[1]; [11],4.49
same,pH,[1]; [12],4.48
same,pH,[1]; [13],4.48
same,pH,[1]; [14],1.50
same,pH,[1]; [15],1.56
same,solubility at 1 h,"[1]; water, H2O, 1 h",38.2 µg/mL
same,solubility at 2 h,"[1]; water, H2O, 2 h",18 µg/mL
same,solubility at 4 h,"[1]; water, H2O, 4 h",11.1 µg/mL
same,solubility at 24 h,"[1]; water, H2O, 24 h",3 µg/mL
same,S: solubility,"[2]; H2O, 2 h, feeding concentration 1 mg/mL",<LOQ
same,pH,"[2]; FaSSIF, 2 h",6.3
same,pH,"[2]; FaSSIF, 24 h",6.2
same,pH,"[2]; H2O, 2 h",2.7
same,pH,"[2]; H2O, 24 h",2.5
same,pH,"[2]; SGF, 2 h",1.8
same,pH,"[2]; SGF, 24 h",1.8
same,solubility at 2 h,[3]; fassif,61.6 µg/mL
same,solubility at 24 h,[3]; fassif,33.8 µg/mL
same,solubility at 2 h,[3]; sgf,54.5 µg/mL
same,solubility at 24 h,[3]; sgf,25 µg/mL
same,solubility at 24 h,[3]; water,0.1 µg/mL
same,vapor sorption values,[4],0.445%
same,HPLC results Purity (area%),"[5]; 25 °C/60% RH/open, 1 week, listed as Crystal form B of sulfate",97.97 area%
same,HPLC results Purity (area%),"[5]; 40 °C/75% RH/open, 1 week, listed as Crystal form B of sulfate",97.98 area%
same,HPLC results Purity (area%),[5]; [16],97.98 area%
same,HPLC results Relative to starting (%),[5]; [16],100.0%
same,HPLC results Purity (area%),"[5]; Starting, listed as Crystal form B of sulfate",98.00 area%
same,Crystal form,"[5]; XRPD after 25 °C/60% RH/open, 1 week, listed as Crystal form B of sulfate",Crystal form B of sulfate
same,Crystal form,"[5]; XRPD after 40 °C/75% RH/open, 1 week, listed as Crystal form B of sulfate",Crystal form B of sulfate
same,Crystal form,"[5]; XRPD after 80 °C/sealed, 1 day, listed as Crystal form B of sulfate",Crystal form B of sulfate
Cc1cc(-c2cnn(-c3ccc(NS(=O)(=O)CCO)cc3N3CCC4(CC3)CC4)c2)nc(N2CCC(F)(F)CC2)n1 [free crystal form D],S: solubility,"[1]; FaSSIF, 1 h, 60 min",6.5 µg/mL
same,S: solubility,"[1]; FaSSIF, 2 h, 120 min",6.5 µg/mL
same,S: solubility,"[1]; FaSSIF, 4 h, 240 min",6.3 µg/mL
same,S: solubility,"[1]; FaSSIF, 24 h, 1440 min",5 µg/mL
same,S: solubility,"[1]; FeSSIF, 1 h, 60 min",16.2 µg/mL
same,S: solubility,"[1]; FeSSIF, 2 h, 120 min",17.2 µg/mL
same,S: solubility,"[1]; FeSSIF, 4 h, 240 min",15.4 µg/mL
same,S: solubility,"[1]; FeSSIF, 24 h, 1440 min",15 µg/mL
same,S: solubility,"[1]; H2O, 1 h, 60 min",0.1 µg/mL
same,S: solubility,"[1]; H2O, 2 h, 120 min",0.1 µg/mL
same,S: solubility,"[1]; H2O, 4 h, 240 min",0.2 µg/mL
same,S: solubility,"[1]; SGF, 1 h, 60 min",6.2 µg/mL
same,S: solubility,"[1]; SGF, 2 h, 120 min",5.7 µg/mL
same,S: solubility,"[1]; SGF, 4 h, 240 min",5.9 µg/mL
same,S: solubility,"[1]; SGF, 24 h, 1440 min",5.1 µg/mL
same,FC: crystal form change,"[1]; FaSSIF, 1 h",No
same,FC: crystal form change,"[1]; FaSSIF, 2 h",No
same,FC: crystal form change,"[1]; FaSSIF, 4 h",No
same,FC: crystal form change,"[1]; FaSSIF, 24 h",No
same,FC: crystal form change,"[1]; FeSSIF, 1 h",No
same,FC: crystal form change,"[1]; FeSSIF, 2 h",No
same,FC: crystal form change,"[1]; FeSSIF, 4 h",No
same,FC: crystal form change,"[1]; FeSSIF, 24 h",No
same,FC: crystal form change,"[1]; H2O, 1 h",No
same,FC: crystal form change,"[1]; H2O, 2 h",No
same,FC: crystal form change,"[1]; H2O, 4 h",No
same,FC: crystal form change,"[1]; H2O, 24 h",No
same,FC: crystal form change,"[1]; SGF, 1 h",No
same,FC: crystal form change,"[1]; SGF, 2 h",No
same,FC: crystal form change,"[1]; SGF, 4 h",No
same,FC: crystal form change,"[1]; SGF, 24 h",No
same,pH,"[1]; FaSSIF, 1 h",6.51
same,pH,"[1]; FaSSIF, 2 h",6.53
same,pH,"[1]; FaSSIF, 4 h",6.55
same,pH,"[1]; FaSSIF, 24 h",6.49
same,pH,"[1]; FeSSIF, 1 h",4.97
same,pH,"[1]; FeSSIF, 2 h",5.01
same,pH,"[1]; FeSSIF, 4 h",4.97
same,pH,"[1]; FeSSIF, 24 h",4.96
same,pH,"[1]; H2O, 1 h",6.91
same,pH,"[1]; H2O, 2 h",7.64
same,pH,"[1]; H2O, 4 h",7.88
same,pH,"[1]; H2O, 24 h",7.65
same,pH,"[1]; SGF, 1 h",1.26
same,pH,"[1]; SGF, 2 h",1.38
same,pH,"[1]; SGF, 4 h",1.29
same,pH,"[1]; SGF, 24 h",1.32
same,crystal form after the DVS test (XRPD),"[4]; 25 °C, 0% RH to 95% RH",converted to the free crystal forms D + J
same,vapor sorption values,[4],3.129%
same,crystal form after the stability test (XRPD),[5]; 80 °C/sealed condition for 1 day,converted to the free crystal forms J + D
